Laboratory results published in BigSolDB 2.1.

O=C(O)CCCC[C@@H]1SC[C@@H]2NC(=O)N[C@@H]21
Conditions | solubility (mole fraction)
in DMF, 298.65 K | 0.00356
in DMF, 303.25 K | 0.00413
in DMF, 308.15 K | 0.00497
in DMF, 313.15 K | 0.00603
in DMF, 318.15 K | 0.0075
in DMF, 323.25 K | 0.00902
in DMF, 328.15 K | 0.0107
in DMF, 333.15 K | 0.0128
in DMSO, 298.15 K | 0.0378
in DMSO, 303.15 K | 0.0425
in DMSO, 308.15 K | 0.0479
in DMSO, 313.15 K | 0.053
in DMSO, 318.05 K | 0.0582
in DMSO, 322.75 K | 0.0633
in DMSO, 327.65 K | 0.0687
in DMSO, 332.85 K | 0.0748
in acetic acid, 298.15 K | 0.00226
in acetic acid, 303.15 K | 0.00283
in acetic acid, 308.15 K | 0.0035
in acetic acid, 313.25 K | 0.00424
in acetic acid, 317.95 K | 0.00509
in acetic acid, 323.45 K | 0.00646
in acetic acid, 327.85 K | 0.00766
in acetic acid, 333.25 K | 0.00922
in ethanol, 298.15 K | 6.35e-05
in ethanol, 302.95 K | 8.69e-05
in ethanol, 308.85 K | 0.000133
in ethanol, 313.95 K | 0.000176
in ethanol, 318.45 K | 0.00023
in ethanol, 323.55 K | 0.000309
in ethanol, 329.35 K | 0.000442
in ethanol, 333.85 K | 0.000582
in methanol, 298.15 K | 6.92e-05
in methanol, 302.75 K | 9.37e-05
in methanol, 308.05 K | 0.000143
in methanol, 313.25 K | 0.000208
in methanol, 317.85 K | 0.000298
in methanol, 323.55 K | 0.00046
in methanol, 327.65 K | 0.000601
in methanol, 332.95 K | 0.000862
in water, 298.15 K | 4.97e-06
in water, 303.15 K | 8.18e-06
in water, 308.05 K | 1.28e-05
in water, 312.75 K | 2.06e-05
in water, 318.55 K | 3.52e-05
in water, 323.15 K | 5.42e-05
in water, 328.95 K | 9.12e-05
in water, 332.95 K | 0.000129
